Entries after “also recorded” stand apart in the source; their conditions may differ.
Columns and labels:
MDCK-mdr1 cells = test: MDCK-mdr1 permeability assay; assay type: in vitro ADME, canine; conditions: 10 μM apical, 1 h, 37 °C, pH 7.4
[1] = test system: neuropathy induced by unilateral sciatic nerve entrapment (SNE); test: SNE-induced mechanical allodynia; assay type: in vivo, rat; conditions: SNE rats
central CB1Rs = test: Tetrad CNS side effect tests; assay type: in vivo, rat; conditions: naïve rats; for CNS side effects in catalepsy, rotarod, hypothermia assays: ip, 0.3 mg/kg and 3-fold higher doses; for CNS side effects in catalepsy, motor incoordination, hypothermia assays: oral, up to 10 mg/kg
[2] = test system: acute nociception in naïve rats; test: Tail-flick test; assay type: in vivo, rat
[3] = Pharmacokinetics: plasma, brain and CSF levels; conditions: rat, 0.3 mg/kg ip, ~75 min
[4] = test system: antiallodynic effect of 2-5u in the SNE neuropathy; test: Pretreatment with CB1R/CB2R blockers before 2-5u in SNE rats; assay type: in vivo, rat; conditions: blocker (2 and 3: 3 mg/kg ip) 30 min before 2-5u 0.6 mg/kg
hCB1R = hCB1R (Homo sapiens, UniProt P21554); test: CB1R radioligand displacement binding assay; conditions: for Ki: read-out: Ki (nM) hCB1R vs CP55,940, [3H]-CP55940 displacement, Cheng–Prusoff
hCB1R, sequence (P21554 whole entry): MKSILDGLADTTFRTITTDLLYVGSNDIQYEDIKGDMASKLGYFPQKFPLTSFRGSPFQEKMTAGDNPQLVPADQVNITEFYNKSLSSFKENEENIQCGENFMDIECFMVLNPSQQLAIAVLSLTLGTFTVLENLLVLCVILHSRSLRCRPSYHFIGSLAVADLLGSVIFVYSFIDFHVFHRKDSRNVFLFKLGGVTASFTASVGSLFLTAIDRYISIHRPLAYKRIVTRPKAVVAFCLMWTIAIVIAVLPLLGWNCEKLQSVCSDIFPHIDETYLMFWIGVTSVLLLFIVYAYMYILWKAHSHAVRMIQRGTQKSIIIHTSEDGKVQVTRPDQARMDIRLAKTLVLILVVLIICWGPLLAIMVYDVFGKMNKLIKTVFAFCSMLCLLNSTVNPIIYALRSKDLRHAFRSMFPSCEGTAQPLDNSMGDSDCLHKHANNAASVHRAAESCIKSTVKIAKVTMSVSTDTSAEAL

CCCCCn1cc(C(=O)c2ccc(C(=O)OC)c3ccccc23)c2ccccc21 [1-4a, Methyl 4-[(1-Pentyl-1H-indol-3-yl)carbonyl]naphthalene-1-carboxylate]
MDCK B/A ratio (basolateral:apical) (MDCK-mdr1 cells): 0.00

CCCCCn1cc(C(=O)c2cccc3ccccc23)c2c(F)cccc21 [1-4h, 4-Fluoro-3-[(naphthalen-1-yl)carbonyl]-1-pentyl-1H-indole]
MDCK B/A ratio (basolateral:apical) (MDCK-mdr1 cells): 0.000

CCCCCn1cc(C(=O)c2cccc3ccccc23)c2cc(F)ccc21 [1-4i, 5-Fluoro-3-[(naphthalen-1-yl)carbonyl]-1-pentyl-1H-indole]
MDCK B/A ratio (basolateral:apical) (MDCK-mdr1 cells): 0.000

CCCCCn1cc(C(=O)c2cccc3ccccc23)c2ccc(F)cc21 [1-4j, 6-Fluoro-3-[(naphthalen-1-yl)carbonyl]-1-pentyl-1H-indole]
MDCK B/A ratio (basolateral:apical) (MDCK-mdr1 cells): 0.000

CCCCCn1cc(C(=O)c2cccc3ccccc23)c2cccc(F)c21 [1-4k, 7-Fluoro-3-[(naphthalen-1-yl)carbonyl]-1-pentyl-1H-indole]
MDCK B/A ratio (basolateral:apical) (MDCK-mdr1 cells): 0.000

COC(=O)c1ccc(C(=O)c2cn(CCN3CCOCC3)c3ccccc23)c2ccccc12 [1-4o]
MDCK B/A ratio (basolateral:apical) (MDCK-mdr1 cells): 1.02

C1=C(CCN2CCOCC2)c2ccccc2/C1=C/c1cccc2ccccc12 [2-5a, 4-{2-[(1E)-1-(Naphthalen-1-ylmethylidene)-1H-inden-3-yl]ethyl}-morpholine]
suppression of SNE-induced mechanical allodynia ([1]; 0.3 mg/kg ip, 0.3 mg/kg): much smaller effect; also recorded: considerably smaller increases in thresholds than 2-5u or 2-5j

COc1ccc(/C=C2\C=C(CCN3CCOCC3)c3ccccc32)c2ccccc12 [2-5j, 4-{2-[(1E)-1-[(4-Methoxynaphthalen-1-yl)methylidene]-1H-inden-3-yl]ethyl}morpholine]
MDCK B/A ratio (basolateral:apical) (MDCK-mdr1 cells): 0.000
suppression of SNE-induced mechanical allodynia ([1]; 0.3 mg/kg ip, 0.3 mg/kg): large, reversible decreases in mechanical allodynia; also recorded: complete suppression of mechanical allodynia symptoms
CNS side effects in catalepsy, rotarod, hypothermia assays (central CB1Rs): no effect in the assays of CNS CB1R activation
CNS side effects in catalepsy, motor incoordination, hypothermia assays (central CB1Rs): relative lack of side effects in the catalepsy, motor incoordination, and hypothermia assays
effect in tail-flick assay ([2]; oral): small effects in the tail-flick assay

CCc1ccc(/C=C2\C=C(CCN3CCOCC3)c3ccccc32)c2ccccc12 [2-5t, 4-{2-[(1E)-1-[(4-Ethylnaphthalen-1-yl)methylidene]-1H-indenyl]-ethyl}morpholine]
MDCK B/A ratio (basolateral:apical) (MDCK-mdr1 cells): 0.000
CNS side effects in catalepsy, motor incoordination, hypothermia assays (central CB1Rs): relative lack of side effects in the catalepsy, motor incoordination, and hypothermia assays
effect in tail-flick assay ([2]; oral): small effects in the tail-flick assay

CCCc1ccc(/C=C2\C=C(CCN3CCOCC3)c3ccccc32)c2ccccc12 [2-5u, 4-{2-[(1E)-1-[(4-Propylnaphthalen-1-yl)methylidene]-1H-inden-3-yl]ethyl}morpholine]
MDCK B/A ratio (basolateral:apical) (MDCK-mdr1 cells): 0.000
suppression of SNE-induced mechanical allodynia ([1]; 0.3 mg/kg ip, 0.3 mg/kg): large, reversible decreases in mechanical allodynia; also recorded: ipsilateral thresholds are increased to levels of predrug contralateral thresholds; also recorded: complete suppression of mechanical allodynia symptoms
suppression of SNE-induced mechanical allodynia ([1]; 3 mg/kg oral, 3 mg/kg): reversibly suppresses SNE neuropathy symptoms; also recorded: effective in suppressing neuropathy symptoms after oral administration; also recorded: complete suppression of allodynia symptoms at peak effect
CNS side effects in catalepsy, rotarod, hypothermia assays (central CB1Rs; 0.3 mg/kg): lack effects in the catalepsy, rotarod, or hypothermia assays; also recorded: no effect in the assays of CNS CB1R activation
CNS side effects in catalepsy, motor incoordination, hypothermia assays (central CB1Rs): relative lack of side effects in the catalepsy, motor incoordination, and hypothermia assays; also recorded: no significant effect on central CB1Rs
effect in tail-flick assay ([2]; ip (2-5u 0.3 mg/kg)): small effect in the tail-flick assay; also recorded: small analgesic effect; also recorded: small effects on acute nociception
effect in tail-flick assay ([2]; oral): small effects in the tail-flick assay
CNS penetration (plasma, brain, CSF samples) [3]: minimal penetration of 2-5u into the CNS

CCCCCC1=C/C(=C\c2cccc3ccccc23)c2ccccc21 [2-7a, 1-{[(1E)-3-pentyl-1H-inden-1-ylidene]methyl}naphthalene, reference compound]
MDCK B/A ratio (basolateral:apical) (MDCK-mdr1 cells): 0.04

CCCCCCC(C)(C)c1cc(O)c2c(c1)OC(C)(C)[C@@H]1CC=C(CO)C[C@@H]21 [compound 1, reference compound]
CNS side effects in catalepsy (ring), core temperature, rotarod tests (central CB1Rs; 0.01 mg/kg ip, positive control, 0.01 mg/kg): strong CNS side effects; also recorded: profound CNS side effects

Cc1c(C(=O)NN2CCCCC2)nn(-c2ccc(Cl)cc2Cl)c1-c1ccc(Cl)cc1 [compound 2]
effect of pretreatment on antiallodynic effect of 2-5u [4]: completely blocked the antiallodynic effect of 2-5u; also recorded: completely blocks the response to 2-5u

(1E)-3-hexyl-1-(2-phenylethylidene)-1H-indene [2-7c]
Ki (hCB1R): 4410 nM
loss of hCB1R affinity versus 2-7a (hCB1R; versus 2-7a (pentyl)): 256 fold
loss of hCB1R affinity versus 2-7b (hCB1R; versus naphthylidene analogue 2-7b (n-hexyl)): 10 fold

N-(3-Carboxybutyl)-3-(1-naphthoyl)-1H-indole [1-4g]
Ki (hCB1R): > 10000 nM

N-(3-Ethoxycarbonylbutyl)-3-(1-naphthoyl)-1H-indole [1-4e]
Ki (hCB1R): 1470 nM

Source: paper PMC5474949 (Journal of medicinal chemistry, 2016)
